Measured values published in patent US20250051300A1, “GRAM-NEGATIVE SPECIFIC ANTIBIOTICS SPARING EFFECT ON GUT MICROBIOME” (THE BOARD OF TRUSTEES OF THE UNIVERSITY OF ILLINOIS, priority 2021, published 2025).
Read-outs that look alike come from different tables or passages of the source.

Columns and labels:
E. coli AR0349 [1] = test: Acute pneumonia bacterial burden model; type: in vivo, CD-1 mice; details: lungs, 72 h post-infection
E. coli AR0349 [2] = test: Bacterial sepsis survival model; type: in vivo, CD-1 mice
Escherichia coli [3] = test: Resistance frequency, large inoculum method; type: cell-based
Description: Selection of resistant mutants. Resistant mutants were selected using the large inoculum method. Briefly, E. coli BW25113, K. pneumoniae ATCC 27736, or E. cloacae ATCC 29893 (˜1.0×10^7 c.f.u.) was plated on 100-mm plates of Luria Bertani agar containing 8, 16, 32, or 64 μg/mL, lolamycin. For E. coli ΔtolC (JW5503), ˜1.0×10^7 c.f.u. was plated on 100-mm plates of Luria Bertani agar containing 0.063, 0.13, 0.25, 0.5 μg/mL lolamycin. Colonies were visible after incubating at 37° C. for 48 h. Resistant colonies were confirmed by growing colonies in selective media with the same concentration of lolamycin.

[4] = test system: clinical isolates of E. coli, K. pneumoniae, and E. cloacae; test: Susceptibility of panel of multidrug-resistant clinical isolates; details: MDR clinical isolates of E. coli
Aqueous solubility limit = type: physicochemical; details: limit to which compounds were tested in MIC assays
Escherichia coli [5] = test: MIC, micro-dilution broth method (CLSI); type: cell-based; details: Escherichia coli
Enterobacter cloacae = test: MIC, micro-dilution broth method (CLSI); type: cell-based; details: Enterobacter cloacae, read-out: MIC

Cc1cc(-c2c[nH]nc2-c2cccc(OCc3cccc(C#N)c3)c2)cc(C)n1 [Compound 12, 3-((3-(4-(2,6-dimethylpyridin-4-yl)-1H-pyrazol-3-yl)phenoxy)methyl)benzonitrile]
128 µg/mL: solubility (Aqueous solubility limit; aqueous medium (not further specified)) | solubility (Aqueous solubility limit)
3 log: reduction in bacterial burden vs vehicle (E. coli AR0349 [1]; 200 mg/kg PO twice a day for 3 days)
8 µg/mL: MIC (Escherichia coli [5]; E. coli AR0061, read-out: MIC) | MIC (Escherichia coli [5]; E. coli ELZ 4139, read-out: MIC) | MIC (Enterobacter cloacae; E. cloacae AR0038)
1.8×10^−8: resistance frequency (Escherichia coli [3]; E. coli ΔtolC JW5503, 32×MIC)
0.008 µg/mL: MIC (Escherichia coli [5]; E. coli ΔtolC JW5503 (efflux-deficient))
2 µg/mL: MIC (Escherichia coli [5]; ATCCBAA2340, E. coli ATCC BAA-2340, read-out: MIC) | MIC (Escherichia coli [5]; E. coli AR0055, read-out: MIC) | MIC (Escherichia coli [5]; E. coli AR0058, read-out: MIC) | MIC (Escherichia coli [5]; E. coli AR0067, read-out: MIC) | MIC (Escherichia coli [5]; E. coli AR0069, read-out: MIC) | MIC (Escherichia coli [5]; E. coli AR0081, read-out: MIC) | MIC (Escherichia coli [5]; E. coli AR0084, read-out: MIC) | MIC (Escherichia coli [5]; E. coli AR0089, read-out: MIC) | MIC (Escherichia coli [5]; E. coli AR0114, read-out: MIC) | MIC (Escherichia coli [5]; E. coli AR0137, read-out: MIC) | MIC (Escherichia coli [5]; E. coli AR0149, read-out: MIC) | MIC (Escherichia coli [5]; E. coli AR0151, read-out: MIC) | MIC (Escherichia coli [5]; E. coli AR0346, read-out: MIC) | MIC (Escherichia coli [5]; E. coli AR0348, read-out: MIC) | MIC (Escherichia coli [5]; E. coli AR0495, read-out: MIC) | MIC (Escherichia coli [5]; E. coli AR0551, read-out: MIC) | MIC (Escherichia coli [5]; E. coli AR0559, read-out: MIC) | MIC (Escherichia coli [5]; E. coli AR-0549, read-out: MIC) | MIC (Escherichia coli [5]; E. coli ELZ 4004, read-out: MIC) | MIC (Escherichia coli [5]; E. coli ELZ 4017, read-out: MIC) | MIC (Escherichia coli [5]; E. coli ELZ 4072, read-out: MIC) | MIC (Escherichia coli [5]; E. coli ELZ 4081, read-out: MIC) | MIC (Escherichia coli [5]; E. coli ELZ 4277, read-out: MIC) | MIC (Escherichia coli [5]; E. coli ELZ 4346, read-out: MIC) | MIC (Enterobacter cloacae; E. cloacae AR0032)
16 µg/mL: MIC (Enterobacter cloacae; ATCCBAA2341, E. cloacae ATCC BAA-2341)
~2 µg/mL: concentration that kills 50% of the strains [4]
100%: mice with septic infection rescued (survival) (E. coli AR0349 [2]; 100 mg/kg IP twice daily for 3 days)
0.5 µg/mL: MIC (Escherichia coli [5]; E. coli AR0086, read-out: MIC) | MIC (Escherichia coli [5]; E. coli AR0546, read-out: MIC) | MIC (Enterobacter cloacae; E. cloacae AR0050)
3.4×10^−7: resistance frequency (Escherichia coli [3]; wild-type E. coli BW25113, 8×MIC)
2 log: reduction in bacterial burden (E. coli AR0349 [1]; 100 mg/kg IP twice a day for 3 days)
1 µg/mL: MIC (Escherichia coli [5]; ATCC25922, E. coli ATCC 25922, read-out: MIC) | MIC (Escherichia coli [5]; ATCCBAA2469, E. coli ATCC BAA-2469, read-out: MIC) | MIC (Escherichia coli [5]; E. coli AR0077, read-out: MIC) | MIC (Escherichia coli [5]; E. coli AR0085, read-out: MIC) | MIC (Escherichia coli [5]; E. coli AR0104, read-out: MIC) | MIC (Escherichia coli [5]; E. coli AR0118, read-out: MIC) | MIC (Escherichia coli [5]; E. coli AR0128, read-out: MIC) | MIC (Escherichia coli [5]; E. coli AR0150, read-out: MIC) | MIC (Escherichia coli [5]; E. coli AR0350, read-out: MIC) | MIC (Escherichia coli [5]; E. coli AR0541, read-out: MIC) | MIC (Escherichia coli [5]; E. coli AR-0349 (colistin-resistant clinical isolate), read-out: MIC) | MIC (Enterobacter cloacae; E. cloacae AR0060)
0.06 µg/mL: MIC (Escherichia coli [5]; E. coli ΔrfaC JW3596 (permeability mutant))
~8 µg/mL: concentration that kills 90% of the strains [4]
4 µg/mL: MIC (Escherichia coli [5]; ATCCBAA2471, E. coli ATCC BAA-2471, read-out: MIC) | MIC (Escherichia coli [5]; E. coli AR0048, read-out: MIC) | MIC (Escherichia coli [5]; E. coli AR0119, read-out: MIC) | MIC (Escherichia coli [5]; E. coli AR0162, read-out: MIC) | MIC (Escherichia coli [5]; E. coli AR0493, read-out: MIC) | MIC (Escherichia coli [5]; E. coli AR0494, read-out: MIC) | MIC (Escherichia coli [5]; E. coli AR0543, read-out: MIC) | MIC (Escherichia coli [5]; E. coli ELZ 4042, read-out: MIC) | MIC (Escherichia coli [5]; E. coli ELZ 4239, read-out: MIC) | MIC (Enterobacter cloacae; ATCC29893, E. cloacae ATCC 29893) | MIC (Enterobacter cloacae; ATCCBAA2468, E. cloacae ATCC BAA-2468) | MIC (Enterobacter cloacae; E. cloacae AR0053)
over 70%: mice with septic infection rescued (survival) (E. coli AR0349 [2]; 200 mg/kg PO twice daily for 3 days)
